Values joined by “and” are separate entries in the source; they are usually repeats but may differ in a detail not shown here. Equal entries are not always repeated.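 Where inhibition never reached the appropriate level, the endpoint shown equals the highest concentration tested. Otherwise, values were interpolated linearly from a five-concentration, 48-hour dose response in 96-well plates. Here, GI50 denotes the concentration required for 50% inhibition of growth. At the TGI there is no net growth.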 A value given as a limit tells only on which side of the number the result lay.

Among the test systems are T-47D breast; 786-0 renal; KM12 colon; COLO 205 colon; MCF7 breast; NCI-H23 lung; K-562 leukemia; HL-60(TB) leukemia.
Common to all, as to experiment: NCI tumour cell line growth inhibition, 48 h

As for `CN(C)CCC=C1c2ccccc2C(C)(C)c2ccccc21`, the GI50 in the experiment on T-47D breast is 11.5 µM; in the experiment with 786-0 renal, 12.8 µM; with KM12 colon it was 14.8 µM; with COLO 205 colon, 3.82 µM; with MCF7 breast it was 10.2 µM; in the experiment on NCI-H23 lung, 14 µM. Besides, the figures for the GI50 in the experiment on K-562 leukemia and in the experiment with HL-60(TB) leukemia were 3 µM and 12.4 µM, respectively. Besides, the TGI was 27.4 µM with T-47D breast; 27 µM in the experiment with 786-0 renal; 28.4 µM in the experiment with KM12 colon; 14.3 µM with COLO 205 colon; 22.5 µM in the experiment with MCF7 breast; 28.9 µM with NCI-H23 lung. For the same compound, the results for the TGI in the experiment on K-562 leukemia and with HL-60(TB) leukemia were 19 µM and 27.1 µM, respectively.

As for `c1cc(CSSCc2ccncc2)ccn1`, the TGI with T-47D breast is greater than 100 µM; in the experiment with 786-0 renal, greater than 100 µM; in the experiment with KM12 colon it was greater than 100 µM; in the experiment on COLO 205 colon, 49.2 µM; in the experiment on MCF7 breast, greater than 100 µM; in the experiment on NCI-H23 lung, greater than 93.2 µM. For the same compound, the TGI with K-562 leukemia is greater than 100 µM; with HL-60(TB) leukemia, 42.4 µM.

For `O=C(N=Nc1c(O)[nH]c2ccccc12)c1oc2ccccc2c1CN1CCN(c2ccccc2)CC1`, the GI50 with T-47D breast was 1.38 µM; in the experiment with 786-0 renal, 0.865 µM; in the experiment on KM12 colon, 7.47 µM; in the experiment on COLO 205 colon it was 2.77 µM; with MCF7 breast it was 1.43 µM; in the experiment with NCI-H23 lung it was 2.01 µM. The results for the GI50 in the experiment on K-562 leukemia and in the experiment with HL-60(TB) leukemia were 1.98 µM and 36.5 µM, respectively. Moreover, the TGI in the experiment on T-47D breast was 5.41 µM; in the experiment with 786-0 renal it was 1.84 µM; with KM12 colon it was greater than 50 µM; in the experiment on COLO 205 colon, greater than 50 µM; with MCF7 breast it was 5.89 µM; with NCI-H23 lung it was 8.73 µM. Also, the TGI in the experiment with K-562 leukemia and in the experiment with HL-60(TB) leukemia was greater than 50 µM throughout.

With `N#CC1(Nc2ccc(-c3ccc(NC4(C#N)CCCC4)cc3)cc2)CCCC1`, the TGI with T-47D breast, in the experiment on 786-0 renal, in the experiment with KM12 colon, in the experiment with COLO 205 colon, in the experiment on MCF7 breast and in the experiment with NCI-H23 lung was greater than 100 µM in each case. Further, the TGI with K-562 leukemia and in the experiment on HL-60(TB) leukemia was greater than 100 µM in each case.

As for `CSc1ccc2c(c1)N(CCC1CCCCN1C)c1ccccc1S2` (configuration not stated), the GI50 was 5.82 µM and 3.4 µM in the experiment on T-47D breast; 11.7 µM and 4.92 µM in the experiment on 786-0 renal; 6.3 µM and 4.16 µM in the experiment with KM12 colon; 6.22 µM and 3.57 µM in the experiment on COLO 205 colon; 5.63 µM and 2.2 µM in the experiment on MCF7 breast; 10.3 µM and 8.49 µM with NCI-H23 lung. Further, the GI50 in the experiment on K-562 leukemia is 2.13 µM; in the experiment on HL-60(TB) leukemia it was 13.4 µM and 3.12 µM. Also, the TGI in the experiment with T-47D breast was 23.3 µM and 11.4 µM; with 786-0 renal it was 25.7 µM and 19.4 µM; in the experiment on KM12 colon it was 18.8 µM and 16.1 µM; with COLO 205 colon it was 24 µM and 13.2 µM; in the experiment on MCF7 breast, 21.7 µM and 4.48 µM; with NCI-H23 lung, 24 µM and 22.7 µM. The TGI in the experiment on K-562 leukemia is 4.4 µM; in the experiment with HL-60(TB) leukemia, 30.3 µM and 9.22 µM.

`Cc1[nH]c(C(=O)Nc2ccccc2OC2CCNCC2)c(Cl)c1Cl`: the GI50 in the experiment on T-47D breast was 0.987 µM; with 786-0 renal it was 0.817 µM; in the experiment on KM12 colon, 1.28 µM; in the experiment with COLO 205 colon it was 0.856 µM; in the experiment with MCF7 breast, 0.882 µM; with NCI-H23 lung, 1.52 µM. Also, the GI50 is 1.66 µM in the experiment with K-562 leukemia and 1.05 µM in the experiment with HL-60(TB) leukemia. For the same compound, the TGI in the experiment with T-47D breast is 2.09 µM; with 786-0 renal, 1.57 µM; with KM12 colon, 3.16 µM; in the experiment on COLO 205 colon it was 1.63 µM; in the experiment on MCF7 breast, 1.68 µM; in the experiment on NCI-H23 lung, 5.64 µM. Also, the results for the TGI in the experiment on K-562 leukemia and in the experiment on HL-60(TB) leukemia were 5.26 µM and 2.26 µM, respectively.

As to `C=C1CCC2C3(C)COC(c4c(OC)cccc4OC)OC3CCC2(C)C1C/C=C1/C(=O)OCC1O` (configuration not stated), the GI50 with T-47D breast is 5.43 µM; in the experiment with 786-0 renal it was 3.34 µM; in the experiment on KM12 colon, 2.21 µM; in the experiment on COLO 205 colon, 2.23 µM; in the experiment with MCF7 breast, 2.53 µM; in the experiment with NCI-H23 lung it was 3.98 µM. Besides, the GI50 in the experiment on K-562 leukemia was 1.41 µM; in the experiment on HL-60(TB) leukemia it was 1.54 µM. Also, the TGI stood at 26.9 µM with T-47D breast; 8.88 µM in the experiment on 786-0 renal; 4.99 µM in the experiment with KM12 colon; 4.95 µM with COLO 205 colon; 12.8 µM in the experiment on MCF7 breast; 15 µM in the experiment on NCI-H23 lung. For the same compound, the TGI in the experiment on K-562 leukemia amounted to 6.28 µM; with HL-60(TB) leukemia, 4.9 µM.

For `NCCCCCCCCCCCn1c2c(c3ccccc3c1=O)C(=O)c1ccccc1-2`, the GI50 in the experiment with T-47D breast was 4.42 µM; in the experiment on 786-0 renal, 19.9 µM; in the experiment on KM12 colon, 3.95 µM; in the experiment with COLO 205 colon, 2.24 µM; with MCF7 breast, 8.63 µM; in the experiment on NCI-H23 lung it was 11.6 µM. The GI50 was 2.31 µM in the experiment with K-562 leukemia and 6.28 µM with HL-60(TB) leukemia. In addition, the TGI was determined as 26.6 µM in the experiment on T-47D breast; 46.9 µM in the experiment on 786-0 renal; 37.8 µM with KM12 colon; 5.45 µM in the experiment on COLO 205 colon; 37.9 µM with MCF7 breast; 32 µM in the experiment on NCI-H23 lung. In addition, the TGI in the experiment on K-562 leukemia worked out at 4.58 µM; in the experiment with HL-60(TB) leukemia it was 20.4 µM.

The values are drawn from PubChem BioAssay (NCI).
